BindingDB's records for doi:10.1021/acsmedchemlett.9b00354 (Bristol-Myers Squibb, 2019)

Assay: Effect on ZAP70 phosphorylation in human Jurkat cells pre-incubated for 30 mins followed by anti-CD3/CD28 stimulation measured after 10 mins

SMILES	EC50
Cc1cc(NC(=O)c2nn(C3CCN(C(=O)NC(C)(C)C)CC3)c3ccccc23)ccc1NC(=O)c1cnn2ccccc12	42 nM
CC(C)(C)NC(=O)N1CC(Cn2nc(C(=O)Nc3ccc(-c4ccc(=O)[nH]n4)c(Cl)c3)c3ccccc32)C1	7900 nM
COc1ccc2c(C(=O)Nc3ccc(NC(=O)c4nn(C5CCN(C(=O)NC(C)(C)C)CC5)c5ccccc45)cc3C)cnn2c1	28 nM
COc1ccc2c(C(=O)Nc3ccc(NC(=O)c4nn(C)c5ccccc45)cc3C)cnn2c1	> 20000 nM
CCc1cc(NC(=O)c2nn(C3CCN(C(=O)NC(C)(C)C)CC3)c3ccccc23)ccc1-c1n[nH]c(=O)cc1C	2000 nM
COc1ccc2c(C(=O)Nc3ccc(NC(=O)c4nn(C5CCN(C(=O)NC(C)(C)C)CC5)c5ccc(F)cc45)cc3Cl)cnn2c1	56 nM
CCc1cc(NC(=O)c2nn(C3CCN(C(=O)NC(C)(C)C)CC3)c3ccccc23)ccc1-c1n[nH]c(=O)c(C)c1C	420 nM
Cc1cc(=O)[nH]nc1-c1ccc(NC(=O)c2nn(C3CCN(C(=O)NC(C)(C)C)CC3)c3ccccc23)cc1Cl	4050 nM

The remaining compounds from weak to strong by EC50, led by results:

EC50	SMILES
5700 nM	CC(C)(C)NC(=O)N1CCC(n2nc(C(=O)Nc3ccc(-c4ccc(=O)[nH]n4)c(Cl)c3)c3ccccc32)CC1
2700 nM	CCc1cc(NC(=O)c2nn(C3CCN(C(=O)NC(C)(C)C)CC3)c3ccccc23)ccc1-c1cc(C)c(=O)[nH]n1
1400 nM	CC(C)(C)NC(=O)N1CCC(n2nc(C(=O)Nc3ccc(NC(=O)c4cnn5ccccc45)cc3)c3ccccc32)CC1
88 nM	Cc1cc(NC(=O)c2nn(C3CCN(C(=O)CC(C)(C)C#N)CC3)c3ccccc23)ccc1NC(=O)c1cnn2ccccc12
49 nM	CC(C)(C)NC(=O)N1CCC(n2nc(C(=O)Nc3ccc(NC(=O)c4cnn5ccccc45)c(Cl)c3)c3ccccc32)CC1
41 nM	COc1ccc2c(C(=O)Nc3ccc(NC(=O)c4nn(C5CCN(C(=O)CC(C)(C)C#N)CC5)c5ccc(F)cc45)cc3Cl)cnn2c1
